Test results published in patent publication US10399931B2, “Octahydroanthracene compound, preparation method and application thereof” (SHANDONG XINHUA PHARMACEUTICAL CO., LTD., priority 2016, dated 2019).

Experiments:
[1] = tested on: Human cutaneous T-cell lymphoma Hut102 cells; assay: MTT assay, proliferation of human cutaneous T-cell lymphoma Hut102 cells; type: cell-based; details: HuT-102, 10 μM, Mean ± SE, read-out: Inhibitive rate (%) against Hut102 cells
Procedure: The survival rate of cells was determined by MTT assay, which is based on the metabolic reduction of 3-(4,5-dimethyl-2thiahiazoyl)-3,5-di-phenyl-tetrazolium bromide (MTT) by viable cells. MTT is a yellow compound, a dye that accepts hydrogen ion, which can act on the respiratory chain in the mitochondria of viable cells. Under the action of succinate dehydrogenase and cytochrome C, the tetrazolium ring was cleaved to form blue Formazan crystals, and the amount of Formazan crystals generated was only proportional to the number of the viable cells. The enzymes disappeared in dead cells, so Formazan crystals could not be dissolved in MTT solution containing 20% sodium dodecyl sulfate (pH 4.7).
The cells in the logarithmic growth phase were selected and adjusted to an appropriate cell density, seeded in a 96-well plate, 100 μl/well, and cultured in a 37° C., 5% CO2 incubator. The cells were allowed to adhere overnight, then the culture medium was replaced and the drug was added to cultivate for 48 h. A blank control group, a drug administration group and a positive control group were set, with four repeats in each group.
After 48 h of drug treatment, the cells were incubated with 0.25 mg/ml MTT at 37° C. for 3-4 h, and 100 μl of dimethyl sulfoxide (DMSO) was added to each well after aspirating the culture solution.

APP/PS1 transgenic mice = assay: Nesting experiment; type: in vivo
From the text: Each mouse was separately housed in a cage. On the first day of the test, two pieces of cotton (5 cm×5 cm) were placed in the cage. […]

[2] = tested on: APP/PS1 double transgenic AD model mice; assay: Safety observations during repeated administration in the behavioral experiment; type: in vivo; details: for Organ index of heart, liver, spleen and kidney: repeated administration (3 consecutive months)
Procedure: OAB-14 at a doge of 50, 100 and 200 mg/kg were respectively given to APP/PS1 double transgenic AD model mice aged 8 months by continuous intragastric administration for 14 days or 3 months (to 11 months old, equivalent to the middle- and late-aged AD), using donepezil as a positive control.

microglia = assay: Phagocytosis of β-amyloid protein by microglia in APP/PS1 mice; type: in vivo
Procedure: • 4.3.1. Immersing the paraffin sections in xylene to dewax for 15 min, and 2 times in total; then immersing in gradient alcohols with a gradient of 100%, 100%, 95%, 90%, 85% and 75%, each for 5 min. • 4.3.2. Microwave antigen retrieval: immersing the sections in 0.01 M citrate buffer (pH 6.0), heating to boiling in a microwave oven, and repeating twice; after natural cooling, washing 2 times with PBS for 5 min each time. • 4.3.3. Blocking endogenous peroxidase: blotting around the brain tissue with filter paper, outlining the brain tissue with a PAP pen. Adding dropwise the peroxidase blocker, incubating for 10 min at room temperature, and washing 3 times with PBS for 5 min each time. • 4.3.4. Adding dropwise normal serum blocking solution diluted with 0.01M PBS at a ratio of 1:10, standing at room temperature for 20 min, shaking off the excess liquid and not washing. • 4.3.5. Adding dropwise the primary antibody diluted with 0.01 M PBS, keeping at 4° C. overnight; washing 3 times with 0.01 M PBS for 2 min each time. • 4.3.6. […] Sealing with water-soluble sealant; observing by fluorescence microscopy. […] Washing 3 times with the PBS on a shaker in a dark for 3 min each time; sealing with the water-soluble sealant, and observing by fluorescence microscope. […]

In the case of CC1(C)CCC(C)(C)c2c1cc1c(c2NC(=O)c2ccc(NC(=O)NCCN)cc2)C(C)(C)CCC1(C)C [OAB-14, 1-(2-amino) ethyl-3-{4-[(1,1,4,4,5,5,8,8-octamethyl-1,2,3,4,5,6,7,8-octahydro-9-anthryl)carbamoyl]phenyl} urea], the inhibition at 10 µM [1] is reported as 41.2 ± 1.08%, the “Nesting ability vs model group” value (APP/PS1 transgenic mice; 100 mg/kg, at 12 h) is reported as “significantly increased” and the “Nesting ability vs model group” value (APP/PS1 transgenic mice; 200 mg/kg, at 6 h) is reported as “significantly increased”. The “Nesting ability vs model group” value (APP/PS1 transgenic mice; 200 mg/kg, at 12 h) was “significantly increased”, the “Nesting ability vs model group” value (APP/PS1 transgenic mice; 200 mg/kg, at 24 h) was “significantly increased” and the “Changes in the main organ tissue sections compared with the blank group” value ([2]; 14 days or 3 months) was “no changes were observed”. For the same compound, the “General condition of the mice” value ([2]; low, medium and high dose, 3 consecutive months) was “in good condition”, the “Organ index of heart, liver, spleen and kidney” value ([2]; low, medium and high dose) was “not abnormal” and the “Organ index of heart, liver, spleen and kidney” value ([2]; low, medium and high dose, listed as OAR-14) was “not seen to be abnormal”. For the same compound, the “Phagocytosis of microglia in the central nervous system to β-amyloid protein” value (microglia) was “promoting the phagocytosis”.
